Laboratory results from patent publication US20180282323A1, “Mesoionic imidazole derivatives as insecticides” (BAYER CROPSCIENCE AKTIENGESELLSCHAFT, priority 2015, published 2018).
Where two headings read alike, the source gives them in different places.

Test: log P by HPLC on reversed-phase column (EEC directive 79/831 Annex V.A8)
Type: physicochemical
Conditions: for log p a): HPLC on reversed-phase column; for log p: HPLC on reversed-phase column (footnote a)
Protocol: a) The determination of the [M+H]^+ by LC-MS in the acidic range was effected at pH 2.7, with acetonitrile (containing 0.1% formic acid) and water as eluents; linear gradient from 10% acetonitrile to 95% acetonitrile, instrument: Agilent 1100 LC system, Agilent MSD system, HTS PAL.
The log P values reported in the tables and preparation examples above were determined in accordance with EEC directive 79/831 Annex V.A8 by HPLC (High Performance Liquid Chromatography) using a reversed-phase column (C18). Temperature 43° C.

Compound	log p a)	log p	other results
O=C(Nc1cc(Cl)cc(Cl)c1)c1c([O-])n(Cc2ccc(Cl)nc2)c2cccc[n+]12 [Example I-1-295]	4.1		
CNCC(=O)c1c([O-])n(Cc2cnc(Cl)s2)c2cccc[n+]12 [Example I-1-058]		0.31	
O=C(NC1CC1)c1c([O-])n(Cc2cnc(Cl)s2)c2c(Cl)ccc[n+]12 [Example I-1-140]		2.01	
O=C(Cn1cccn1)c1c([O-])n(Cc2ccc(Cl)nc2)c2c(F)ccc[n+]12 [Example I-1-105]		1.55	
Cc1cccnc1NC(=O)c1c([O-])n(Cc2cnc(Cl)s2)c2cccc[n+]12 [Example I-1-337]	0.91		
O=C(Nc1ccc(Cl)nc1)c1c([O-])n(Cc2cnc(Cl)s2)c2cccc[n+]12 [Example I-1-153]		3.06	
COC(=O)c1c([O-])n(Cc2ccc(Cl)nc2)c2cc(C(F)(F)F)cc[n+]12 [Example I-1-132]		1.93	
CCNCC(=O)c1c([O-])n(Cc2ccc(Cl)nc2)c2cccc[n+]12 [Example I-1-024]		0.42	
Cc1cnc(Cn2c([O-])c(C(=O)NCC(F)(F)F)[n+]3ccccc23)cn1 [Example I-1-242]	1.57		
Cc1ccc[n+]2c(C(=O)Nc3ccccn3)c([O-])n(Cc3ccc(Cl)nc3)c12 [Example I-1-264]	1.68		
Cc1ccc[n+]2c(C(=O)NC3CCCCC3)c([O-])n(Cc3ccc(Cl)nc3)c12 [Example I-1-253]	2.72		
Cc1cccc(NC(=O)c2c([O-])n(Cc3ccc(Cl)nc3)c3cccc[n+]23)c1 [Example I-1-300]	1.41		
O=C(Nc1ncns1)c1c([O-])n(Cc2cnc(Cl)s2)c2cccc[n+]12 [Example I-1-338]	1.98		
COCC(=O)c1c([O-])n(Cc2ccc(Cl)nc2)c2cc(C(F)(F)F)cc[n+]12 [Example I-1-069]		1.99	
O=C(Nc1c(Cl)ncnc1Cl)c1c([O-])n(Cc2cnc(Cl)s2)c2cccc[n+]12 [Example I-1-331]	2.17		
Cn1ncc(Br)c1NC(=O)c1c([O-])n(Cc2cnc(Cl)s2)c2cccc[n+]12 [Example I-1-332]	1.99		
O=C(Nc1ccc(Cl)cc1)c1c([O-])n(Cc2cnc(Cl)s2)c2cccc[n+]12 [Example I-1-150]		3.39	
COc1cc(NC(=O)c2c([O-])n(Cc3ccc(Cl)nc3)c3cccc[n+]23)ccn1 [Example I-1-329]	1.41		
COC(=O)c1c([O-])n(Cc2ccc(Cl)nc2)c2c(OC(F)(F)F)ccc[n+]12 [Example I-1-189]		1.84	
O=C(Nc1ncccc1[N+](=O)[O-])c1c([O-])n(Cc2cnc(Cl)s2)c2cccc[n+]12 [Example I-1-320]	1.91		
COC(=O)c1c([O-])n(Cc2ccc(Cl)nc2)c2c(C)ccc[n+]12 [Example I-1-183]		1.66	
CNC(=O)c1c([O-])n(Cc2cnc(Cl)cn2)c2cccc[n+]12 [Example I-1-280]	1.15		
O=C(Nc1ncccc1Br)c1c([O-])n(Cc2cnc(Cl)s2)c2cccc[n+]12 [Example I-1-335]	1.58		

Compound	log p a)	log p	other results
O=C(NC1CC1)c1c([O-])n(Cc2ccc(Cl)nc2)c2c(F)ccc[n+]12 [Example I-1-127]		1.82	
N#CC1(NC(=O)c2c([O-])n(Cc3cnc(Cl)s3)c3cccc[n+]23)CC1 [Example I-1-270]	1.58		
CCNC(=O)c1c([O-])n(Cc2cnc(Cl)s2)c2cccc[n+]12 [Example I-1-134]		1.58	
O=C(NCc1ccc(Cl)cc1)c1c([O-])n(Cc2cnc(Cl)s2)c2cccc[n+]12 [Example I-1-149]		2.86	
Cc1ccc[n+]2c(C(=O)NCC3CCCC3)c([O-])n(Cc3ccc(Cl)nc3)c12 [Example I-1-256]	2.8		
CSc1ccc[n+]2c(C(=O)NC3CC3)c([O-])n(Cc3ccc(Cl)nc3)c12 [Example I-1-204]	2.05		
O=C(COc1cccc(Cl)c1)c1c([O-])n(Cc2cnc(Cl)s2)c2cccc[n+]12 [Example I-1-073]		2.87	
O=C(Nc1nccs1)c1c([O-])n(Cc2cnc(Cl)s2)c2cccc[n+]12 [Example I-1-318]	2.05		
O=C(CCl)c1c([O-])n(Cc2ccc(Cl)nc2)c2ccc(F)c[n+]12 [Example I-1-099]		1.78	
Cc1cnc(NC(=O)c2c([O-])n(Cc3ccc(Cl)nc3)c3cccc[n+]23)s1 [Example I-1-327]	2.17		
O=C(COc1ccc(Cl)cc1)c1c([O-])n(Cc2cnc(Cl)s2)c2cccc[n+]12 [Example I-1-074]		2.84	
O=C(Cn1cccn1)c1c([O-])n(Cc2ccc(Cl)nc2)c2cc(C(F)(F)F)cc[n+]12 [Example I-1-102]		2.08	
CNC(=O)c1ccn(CC(=O)c2c([O-])n(Cc3cnc(Cl)s3)c3cccc[n+]23)n1 [Example I-1-048]		1.27	
O=C(COc1ccccc1)c1c([O-])n(Cc2ccc(Cl)nc2)c2cccc[n+]12 [Example I-1-007]		2.2	
Clc1ccc(CNc2ncccn2)cn1 [N-[(6-chloropyridin-3-yl)methyl]pyrimidin-2-amine]			chromatographic logP: 1.36
Cc1ccc2n(Cc3ccc(Cl)nc3)c([O-])c(C(=O)Cn3cccn3)[n+]2c1 [Example I-1-104]		1.63	
O=C(Nc1nccs1)c1c([O-])n(Cc2ccc(Cl)nc2)c2cccc[n+]12 [Example I-1-324]	1.93		
O=C(NC1CC1)c1c([O-])n(Cc2cnc(Cl)s2)c2cc(Cl)cc[n+]12 [Example I-1-184]		2.14	
O=C(CCl)c1c([O-])n(Cc2ccc(Cl)nc2)c2cc(C(F)(F)F)cc[n+]12 [Example I-1-063]		2.52	
Cc1ccc[n+]2c(C(=O)Nc3ccc(Cl)cc3)c([O-])n(Cc3ccc(Cl)nc3)c12 [Example I-1-187]		3.41	
Cc1ccc[n+]2c(C(=O)Cn3cc(Cl)cn3)c([O-])n(Cc3cnc(Cl)s3)c12 [Example I-1-095]		2.27	
O=C(CCl)c1c([O-])n(Cc2cnc(Cl)s2)c2cc(Cl)cc[n+]12 [Example I-1-120]		2.17	
COCC(=O)c1c([O-])n(Cc2cnc(Cl)s2)c2cc(Cl)cc[n+]12 [Example I-1-123]		1.90	

Compound	log p a)	log p	other results
O=C(Cn1ccnc1)c1c([O-])n(Cc2cnc(Cl)s2)c2cccc[n+]12 [Example I-1-050]		0.46	
O=C(NC1CC1)c1c([O-])n(Cc2ccc(Cl)nc2)c2c(F)cc(F)c[n+]12 [Example I-1-197]		1.99	
O=C(Nc1ncccc1C(F)(F)F)c1c([O-])n(Cc2cnc(Cl)s2)c2cccc[n+]12 [Example I-1-336]	1.99		
O=C(CCl)c1c([O-])n(Cc2ccc(Cl)nc2)c2c(F)ccc[n+]12 [Example I-1-100]		1.81	
Cc1cccc(F)c1NC(=O)c1c([O-])n(Cc2cnc(Cl)s2)c2cccc[n+]12 [Example I-1-322]	3.1		
Cn1nccc1NC(=O)c1c([O-])n(Cc2cnc(Cl)s2)c2cccc[n+]12 [Example I-1-330]	1.6		
O=C(CCl)c1c([O-])n(Cc2cncc(Cl)c2)c2cccc[n+]12 [Example I-1-162]		1.53	
O=C(CCl)c1c([O-])n(Cc2ccc(C(F)(F)F)nc2)c2cccc[n+]12 [Example I-1-163]		1.9	
O=C(Nc1cccc(OC(F)(F)F)c1)c1c([O-])n(Cc2ccc(Cl)nc2)c2cccc[n+]12 [Example I-1-298]	3.55		
COC(=O)c1c([O-])n(Cc2ccc(Cl)nc2)c2c(Cl)ccc[n+]12 [Example I-1-130]		1.56	
COC(=O)c1c([O-])n(Cc2ccc(Cl)nc2)c2c(SC)ccc[n+]12 [Example I-1-194]		1.64	
Cc1ccc[n+]2c(C(=O)NCC3CCCCC3)c([O-])n(Cc3ccc(Cl)nc3)c12 [Example I-1-255]	3.21		
O=C(c1c([O-])n(Cc2cnc(Cl)s2)c2cccc[n+]12)N1CCCC1 [Example I-1-273]	1.52		
O=C(NCCc1ccc(Cl)cc1)c1c([O-])n(Cc2cnc(Cl)s2)c2cccc[n+]12 [Example I-1-139]		3	
CCNCC(=O)c1c([O-])n(Cc2cnc(Cl)s2)c2cccc[n+]12 [Example I-1-021, 1-[(2-Chloro-1,3-thiazol-5-yl)methyl]-3-(N-ethylglycyl)-1H-imidazo[1,2-a]pyridin-4-ium-2-olate]			chromatographic logP: 0.57; chromatographic logP (pH 2.7): 0.57
N#Cc1cc[n+]2c(C(=O)CCl)c([O-])n(Cc3ccc(Cl)nc3)c2c1 [Example I-1-067]		1.83	
O=C(NC1CC1)c1c([O-])n(Cc2cnc(Cl)s2)c2cc(C(F)(F)F)cc[n+]12 [Example I-1-141]		2.38	
O=C(CCl)c1c([O-])n(Cc2ccc(Cl)nc2)c2c(Cl)ccc[n+]12 [Example I-1-090]		1.99	
COC(=O)c1c([O-])n(Cc2cnc(Cl)cn2)c2c(C)ccc[n+]12 [Example I-1-281]	1.47		
COC(=O)c1c([O-])n(Cc2ccc(Cl)nc2)c2c(F)cc(F)c[n+]12 [Example I-1-156]		1.56	
Cc1ccc[n+]2c(C(=O)NC3(C#N)CCCCC3)c([O-])n(Cc3ccc(Cl)nc3)c12 [Example I-1-263]	2.62		
O=C(Nc1cnccc1Cl)c1c([O-])n(Cc2cnc(Cl)s2)c2cccc[n+]12 [Example I-1-334]	1.81		
COC(=O)COCC(=O)c1c([O-])n(Cc2ccc(Cl)nc2)c2cccc[n+]12 [Example I-1-030]		1.31	
